Patent US20200024278A1, “COMPOSITION COMPRISING ANTIBIOTIC COMPOUND AND AN HETEROCYCLIC COMPOUND AND THEIR USE IN PREVENTING OR TREATING BACTERIAL INFECTIONS” (MUTABILIS, priority 2016, published 2020)
Where two headings read alike, the source gives them in different places.

What was measured:
Assay in all cases: MIC, broth microdilution (CLSI), substance alone or ATB combined with compound at 4 or 8 μg/mL
[1] = test system: ECL P99; format: cell-based, E. cloacae; conditions: ECL P99; for MIC: Enterobacter cloacae
Procedure, shortened: (§1)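 Potentiation format: antibiotic dilution series run with test compound held at 4 or 8 μg/mL, alongside compound-alone MICs. Broth microdilution per CLSI in ca-MHB, 16-20 h at 35° C.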

[2] = test system: PAE 105250; format: cell-based, P. aeruginosa; conditions: PAE 105250
Procedure, shortened: as §1

[3] = test system: PAE UFR48; format: cell-based, P. aeruginosa; conditions: PAE UFR48
Procedure, shortened: as §1

[4] = test system: PAE UFR90; format: cell-based, P. aeruginosa; conditions: PAE UFR90
Procedure, shortened: as §1

[5] = test system: SAU 29213; format: cell-based, S. aureus; conditions: SAU 29213
Procedure, shortened: as §1

[6] = test system: SPN 49619; format: cell-based, S. pneumoniae; conditions: SPN 49619
Procedure, shortened: as §1

COCC1=C(C(=O)O)N2C(=O)[C@@H](NC(=O)/C(=N\OC)c3csc(N)n3)[C@H]2SC1 [POD, Cefpodoxime, reference compound]
MIC ATB combined with Example 11 @8 μg/ml ([1]; with Example 11 at 8 μg/ml): <0.031 µg/mL | MIC ATB combined with Example 12 @8 μg/ml ([1]; with Example 12 at 8 μg/ml): <0.031 µg/mL | MIC ATB combined with Example 13 @8 μg/ml ([1]; with Example 13 at 8 μg/ml): 4 µg/mL | MIC ATB combined with Example 14 @8 μg/ml ([1]; with Example 14 at 8 μg/ml): <0.031 µg/mL | MIC ATB combined with Example 15 @4 μgml ([1]; with Example 15 at 4 μg/ml): <0.031 µg/mL | MIC ATB combined with Example 16 @4 μg/ml ([1]; with Example 16 at 4 μg/ml): <0.031 µg/mL | MIC ([1]; antibiotic alone, read-out: MIC ATB alone): > 512 µg/mL | MIC ([1]; substance alone, read-out: MIC): > 512 µg/mL | MIC ATB combined with Example 1 @8 μg/ml ([2]; with Example 1 at 8 μg/ml): 0.125 µg/mL | MIC ATB combined with Example 7 @8 μgml ([2]; with Example 7 at 8 μg/ml): >32 µg/mL | MIC ATB combined with Example 9 @4 μg/ml ([2]; with Example 9 at 4 μg/ml): >32 µg/mL | MIC ATB combined with Example 11 @8 μg/ml ([2]; with Example 11 at 8 μg/ml): >32 µg/mL | MIC ATB combined with Example 12 @8 μg/ml ([2]; with Example 12 at 8 μg/ml): >32 µg/mL | MIC ATB combined with Example 13 @8 μg/ml ([2]; with Example 13 at 8 μg/ml): >32 µg/mL | MIC ATB combined with Example 14 @8 μg/ml ([2]; with Example 14 at 8 μg/ml): >32 µg/mL | MIC ATB combined with Example 15 @4 μgml ([2]; with Example 15 at 4 μg/ml): >32 µg/mL | MIC ATB combined with Example 16 @4 μg/ml ([2]; with Example 16 at 4 μg/ml): >32 µg/mL | MIC ([2]; Pseudomonas aeruginosa, antibiotic alone, read-out: MIC ATB alone): > 512 µg/mL | MIC ATB combined with Example 1 @8 μg/ml ([3]; with Example 1 at 8 μg/ml): <0.031 µg/mL | MIC ATB combined with Example 7 @8 μgml ([3]; with Example 7 at 8 μg/ml): >32 µg/mL | MIC ATB combined with Example 9 @4 μg/ml ([3]; with Example 9 at 4 μg/ml): >32 µg/mL | MIC ATB combined with Example 11 @8 μg/ml ([3]; with Example 11 at 8 μg/ml): >32 µg/mL | MIC ATB combined with Example 12 @8 μg/ml ([3]; with Example 12 at 8 μg/ml): >32 µg/mL | MIC ATB combined with Example 13 @8 μg/ml ([3]; with Example 13 at 8 μg/ml): >32 µg/mL | MIC ATB combined with Example 14 @8 μg/ml ([3]; with Example 14 at 8 μg/ml): >32 µg/mL | MIC ATB combined with Example 15 @4 μgml ([3]; with Example 15 at 4 μg/ml): >32 µg/mL | MIC ATB combined with Example 16 @4 μg/ml ([3]; with Example 16 at 4 μg/ml): >32 µg/mL | MIC ATB combined with Example 1 @8 μg/ml ([4]; with Example 1 at 8 μg/ml): <0.031 µg/mL | MIC ATB combined with Example 7 @8 μgml ([4]; with Example 7 at 8 μg/ml): >32 µg/mL | MIC ATB combined with Example 9 @4 μg/ml ([4]; with Example 9 at 4 μg/ml): >32 µg/mL | MIC ATB combined with Example 11 @8 μg/ml ([4]; with Example 11 at 8 μg/ml): >32 µg/mL | MIC ATB combined with Example 12 @8 μg/ml ([4]; with Example 12 at 8 μg/ml): >32 µg/mL | MIC ATB combined with Example 13 @8 μg/ml ([4]; with Example 13 at 8 μg/ml): >32 µg/mL | MIC ATB combined with Example 14 @8 μg/ml ([4]; with Example 14 at 8 μg/ml): >32 µg/mL | MIC ATB combined with Example 15 @4 μgml ([4]; with Example 15 at 4 μg/ml): >32 µg/mL | MIC ATB combined with Example 16 @4 μg/ml ([4]; with Example 16 at 4 μg/ml): >32 µg/mL | MIC ATB combined with Example 1 @8 μg/ml ([5]; with Example 1 at 8 μg/ml): 4 µg/mL | MIC ATB combined with Example 7 @8 μgml ([5]; with Example 7 at 8 μg/ml): 2 µg/mL | MIC ATB combined with Example 9 @4 μg/ml ([5]; with Example 9 at 4 μg/ml): <=0.031 μg/mL | MIC ATB combined with Example 11 @8 μg/ml ([5]; with Example 11 at 8 μg/ml): <0.031 µg/mL | MIC ATB combined with Example 12 @8 μg/ml ([5]; with Example 12 at 8 μg/ml): <0.031 µg/mL | MIC ATB combined with Example 13 @8 μg/ml ([5]; with Example 13 at 8 μg/ml): 2 µg/mL | MIC ATB combined with Example 14 @8 μg/ml ([5]; with Example 14 at 8 μg/ml): <0.031 µg/mL | MIC ATB combined with Example 15 @4 μgml ([5]; with Example 15 at 4 μg/ml): <0.031 µg/mL | MIC ATB combined with Example 16 @4 μg/ml ([5]; with Example 16 at 4 μg/ml): <0.031 µg/mL | MIC ([5]; Staphylococcus aureus, antibiotic alone, read-out: MIC ATB alone): 4 µg/mL | MIC ATB combined with Example 1 @8 μg/ml ([6]; with Example 1 at 8 μg/ml): 0.063 µg/mL | MIC ATB combined with Example 7 @8 μgml ([6]; with Example 7 at 8 μg/ml): 0.063 µg/mL | MIC ATB combined with Example 9 @4 μg/ml ([6]; with Example 9 at 4 μg/ml): <0.031 µg/mL | MIC ATB combined with Example 11 @8 μg/ml ([6]; with Example 11 at 8 μg/ml): <=0.031 μg/mL | MIC ATB combined with Example 12 @8 μg/ml ([6]; with Example 12 at 8 μg/ml): <0.031 µg/mL | MIC ATB combined with Example 13 @8 μg/ml ([6]; with Example 13 at 8 μg/ml): 0.063 µg/mL | MIC ATB combined with Example 14 @8 μg/ml ([6]; with Example 14 at 8 μg/ml): <0.031 µg/mL | MIC ATB combined with Example 15 @4 μgml ([6]; with Example 15 at 4 μg/ml): <=0.031 μg/mL | MIC ATB combined with Example 16 @4 μg/ml ([6]; with Example 16 at 4 μg/ml): <0.031 µg/mL | MIC ([6]; Streptococcus pneumoniae, antibiotic alone, read-out: MIC ATB alone): 0.063 µg/mL
